According to ChEMBL document CHEMBL4725481, “Novel Betulinic Acid-Nucleoside Hybrids with Potent Anti-HIV Activity” (ACS Med Chem Lett, 2020):

Legend:
[1] = Selectivity index, ratio of CC50 for human MT4 cells to EC50 for antiviral activity against HIV1 NL4-3; format: toxicity
[2] = Antiviral activity against HIV 1 NL4-3 infected in human MT4 cells assessed as reduction in viral replication and measured on day 3 post infection by Nano-glo luciferase reporter assay; format: functional, cell-based
[3] = Cytotoxicity against human MT4 cells treated for 3 days measured by Celltiter-glo luminescent assay; format: cell-based; conditions: time 3 day
[4] = Homo sapiens, NL4-3, MT4, 72 h, read-out: IC50

IC50 [2, 4] [nM] | IC50 ([2]; mt4) | Compound | selectivity ratio [1] | CC50 at 72 h [3] [nM]
97 | – | C=C(C)[C@@H]1CC[C@]2(C(=O)OC)CC[C@]3(C)[C@H](CC[C@@H]4[C@@]5(C)C[C@@H](Cc6cn([C@]7(CO)O[C@@H](n8ccc(N)nc8=O)[C@@H](F)[C@@H]7O)nn6)C(=O)C(C)(C)[C@@H]5CC[C@]43C)[C@@H]12 | > 260 | > 25200
– | Not Active | C=C(C)[C@@H]1CC[C@]2(C(=O)OC)CC[C@]3(C)[C@H](CC[C@@H]4[C@@]5(C)C[C@@H](Cc6cn([C@]7(CO)O[C@@H](n8ccc(O)nc8=O)[C@@H](F)[C@@H]7O)nn6)[C@H](O)C(C)(C)[C@@H]5CC[C@]43C)[C@@H]12 | – | –
48 | – | C=C(C)[C@@H]1CC[C@]2(C(=O)OC)CC[C@]3(C)[C@H](CC[C@@H]4[C@@]5(C)C[C@@H](Cc6cn([C@]7(CO)O[C@@H](n8ccc(N)nc8=O)[C@@H](F)[C@@H]7O)nn6)[C@H](O)C(C)(C)[C@@H]5CC[C@]43C)[C@@H]12 | > 525 | > 25200
20 | – | C=C(C)[C@@H]1CC[C@]2(C(=O)O)CC[C@]3(C)[C@H](CC[C@@H]4[C@@]5(C)C[C@@H](Cc6cn([C@]7(CO)O[C@@H](n8ccc(O)nc8=O)[C@@H](F)[C@@H]7O)nn6)[C@H](O)C(C)(C)[C@@H]5CC[C@]43C)[C@@H]12 | 1190 | 23800
– | Not Active | C=C(C)[C@@H]1CC[C@]2(C(=O)OC)CC[C@]3(C)[C@H](CC[C@@H]4[C@@]5(C)C[C@@H](Cc6cn([C@]7(CO)O[C@@H](n8ccc(O)nc8=O)[C@@H](F)[C@@H]7O)nn6)C(=O)C(C)(C)[C@@H]5CC[C@]43C)[C@@H]12 | – | –

Continued, molecule first:

Compound | IC50 [2, 4] [nM] | IC50 ([2]; mt4) | selectivity ratio [1] | CC50 at 72 h [3] [nM]
[N-]=[N+]=N[C@]1(CO)O[C@@H](n2ccc(=O)[nH]c2=O)[C@@H](F)[C@@H]1O | 219 | – | > 16 | > 3480
C=C(C)[C@@H]1CC[C@]2(C(=O)OC)CC[C@]3(C)[C@H](CC[C@@H]4[C@@]5(C)C[C@@H](Cc6cn([C@H]7C[C@H](n8cc(C)c(O)nc8=O)O[C@@H]7CO)nn6)C(=O)C(C)(C)[C@@H]5CC[C@]43C)[C@@H]12 | – | Not Active | – | –
C=C(C)[C@@H]1CC[C@]2(C(=O)O)CC[C@]3(C)[C@H](CC[C@@H]4[C@@]5(C)CC[C@H](OC(=O)CC(C)(C)C(=O)O)C(C)(C)[C@@H]5CC[C@]43C)[C@@H]12 [BEVIRIMAT] | > 21 | – | > 326 | > 6840
C=C(C)[C@@H]1CC[C@]2(C(=O)O)CC[C@]3(C)[C@H](CC[C@@H]4[C@@]5(C)C[C@@H](Cc6cn([C@H]7C[C@H](n8cc(C)c(O)nc8=O)O[C@@H]7CO)nn6)[C@H](O)C(C)(C)[C@@H]5CC[C@]43C)[C@@H]12 | > 1300 | – | – | > 1300
[N-]=[N+]=N[C@]1(CO)O[C@@H](n2ccc(N)nc2=O)[C@@H](F)[C@@H]1O [RO-0622] | 0.262 | – | 380 | 99.6
Cc1cn([C@H]2C[C@H](N=[N+]=[N-])[C@@H](CO)O2)c(=O)[nH]c1=O [ZIDOVUDINE] | 18 | – | > 20.6 | > 370
C=C(C)[C@@H]1CC[C@]2(C(=O)O)CC[C@]3(C)[C@H](CC[C@@H]4[C@@]5(C)C[C@@H](Cc6cn([C@]7(CO)O[C@@H](n8ccc(N)nc8=O)[C@@H](F)[C@@H]7O)nn6)[C@H](O)C(C)(C)[C@@H]5CC[C@]43C)[C@@H]12 | 7.8 | – | 1230 | 9600
C=C(C)[C@@H]1CC[C@]2(C(=O)OC)CC[C@]3(C)[C@H](CC[C@@H]4[C@@]5(C)C[C@@H](Cc6cn([C@H]7C[C@H](n8cc(C)c(O)nc8=O)O[C@@H]7CO)nn6)[C@H](O)C(C)(C)[C@@H]5CC[C@]43C)[C@@H]12 | > 1300 | – | – | > 1300
